Like-named read-outs stand apart in the source and are kept apart here.
Legend:
[1] = system: Cullin-3 (CUL3) neddylation; test: AlphaLISA assay for Cullin-3 (CUL3) neddylation in TF 1 cells; format: cell-based; conditions: Homo sapiens, 3 hours treatment
Procedure, shortened: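 TF 1 cells in unsupplemented IMDM treated with compound concentrations for 3 h, then lysed. CUL3 neddylation detected by AlphaLISA (biotinylated anti-NEDD8, anti-CUL3 acceptor beads overnight, streptavidin donor beads 1 h); normalized to vehicle (0%) and 1 μM DI-1548 (100%), IC50 from Hill fits.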

[2] = target: DCN1 (DCUND1) protein PONY domain (Homo sapiens (Human), UniProt Q96GG9); test: TR-FRET assay, DCN1 binding with FAM-labeled probe
Sequence of DCN1 (DCUND1) protein PONY domain (Q96GG9 60-248): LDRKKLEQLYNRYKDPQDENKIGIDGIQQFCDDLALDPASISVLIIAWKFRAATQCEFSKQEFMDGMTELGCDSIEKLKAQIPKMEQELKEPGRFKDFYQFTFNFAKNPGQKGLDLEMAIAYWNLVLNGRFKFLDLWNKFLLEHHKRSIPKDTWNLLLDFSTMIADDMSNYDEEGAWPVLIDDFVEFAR
Procedure, shortened: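 Biotinylated DCN1 PONY domain, labeled with streptavidin-Tb, was competed against a FAM-labeled non-covalent DCN1 inhibitor probe in buffer with TritonX and 200 mM NaCl. Conditions were 5 nM DCN1 with 20 nM FAM-probe, or 0.31 nM DCN1 with 100 nM FAM-plus 800 nM unlabeled probe. The TR-FRET ratio was read at 1, 5 and 24 h (0.1% DMSO).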

[3] = 24 hr after treatment with compound, read-out: TR FRET IC50 24 hr
[4] = TR FRET IC50 1 hr (nM), 1 hr after treatment with compound
[5] = read-out: TR FRET IC50 1 hr, 1 hr after treatment with compound

CCN1C(=O)[C@@H](NC(=O)c2ccc3ocnc3c2)[C@@H](C2CC2)c2c(C(=O)N3[C@H](C#N)C[C@H]4C[C@H]43)nn(C3CCOCC3)c21 [Compound I-601]
IC50 ([1]; TF-1, 3 h): 100 to 1000 nM | IC50 [2, 3]: 200 to 1000 nM | IC50 [2, 4]: 1000 to 3000 nM

CCN1C(=O)[C@H](NC(=O)c2cccc(C(F)(F)F)c2)[C@H](C2CC2)c2c(C(=O)N(CC#N)C3CC3)nn(C3CCOCC3)c21 [Compound I-405]
IC50 ([1]; TF-1, 3 h): > 1000 nM | IC50 [2, 3]: 1000 to 3000 nM | IC50 [2, 4]: 1000 to 3000 nM

CCN1C(=O)[C@@H](NC(=O)c2ccc3[nH]cnc3c2)[C@@H](C2CC2)c2c(C(=O)N3[C@H](C#N)C[C@H]4C[C@H]43)nn(C3CCOCC3)c21 [Compound I-632]
IC50 ([1]; TF-1, 3 h): > 1000 nM | IC50 [2, 3]: 1000 to 3000 nM | IC50 [2, 4]: 1000 to 3000 nM

COCCN1C(=O)[C@@H](NC(=O)c2cccc(C(F)(F)F)c2)[C@@H](C2CC2)c2c(C(=O)N3[C@H](C#N)C[C@H]4C[C@H]43)nn(C3CCOCC3)c21 [Compound I-474]
IC50 ([1]; TF-1, 3 h): 100 to 1000 nM | IC50 [2, 3]: 200 to 1000 nM | IC50 [2, 4]: 1000 to 3000 nM

CCN1C(=O)[C@@H](NC(=O)c2cccc(C(F)(F)F)c2)[C@@H](c2ccc(F)cc2)c2c(C(=O)N3CC[C@H](F)[C@H]3C#N)nn(C3CCOCC3)c21 [Compound I-694, N-((4S,5S)-3-((2R,3S)-2-cyano-3-fluoropyrrolidine-1-carbonyl)-7-ethyl-4-(4-fluorophenyl)-6-oxo-1-(tetrahydro-2H-pyran-4-yl)-4,5,6,7-tetrahydro-1H-pyrazolo[3,4-b]pyridin-5-yl)-3-(trifluoromethyl)benzamide]
IC50 ([1]; TF-1, 3 h): ≤ 100 nM | IC50 [2, 3]: ≤ 200 nM | IC50 [2, 5]: ≤ 200 nM

CCN1C(=O)[C@@H](NC(=O)c2cccc(C(F)(F)F)c2)[C@@H](c2ccc(F)cc2)c2c(C(C)=O)nn(-c3ccccc3)c21 (racemic) [Compound I-649]
IC50 ([1]; TF-1, 3 h): > 1000 nM | IC50 [2, 3]: 1000 to 3000 nM | IC50 [2, 4]: 1000 to 3000 nM

CCN1C(=O)[C@@H](NC(=O)COc2ccccc2)[C@@H](C2CC2)c2c(C(=O)N3[C@H](C#N)C[C@H]4C[C@H]43)nn(C3CCOCC3)c21 [Compound I-628]
IC50 ([1]; TF-1, 3 h): 100 to 1000 nM | IC50 [2, 3]: 1000 to 3000 nM | IC50 [2, 4]: 1000 to 3000 nM

CCN1C(=O)[C@@H](NC(=O)c2cccc(C(F)(F)F)c2)[C@@H](c2ccccn2)c2c([C@@H](C)NC#N)nn(-c3ccccc3)c21 (mixture of isomers) [Compound I-680]
IC50 ([1]; TF-1, 3 h): ≤ 100 nM | IC50 [2, 3]: ≤ 200 nM | IC50 [2, 4]: 200 to 1000 nM

CCN1C(=O)[C@@H](NC(=O)c2cccc(C(F)(F)F)c2)[C@@H](C2CCC2)c2c(C(=O)N3[C@H](C#N)C[C@H]4C[C@H]43)nn(C3CCOCC3)c21 [Compound I-593]
IC50 ([1]; TF-1, 3 h): ≤ 100 nM | IC50 [2, 3]: ≤ 200 nM | IC50 [2, 5]: ≤ 200 nM

CCN1C(=O)[C@@H](NC(=O)c2csc3c2CCC(C)C3)[C@@H](C2CC2)c2c(C(=O)N3[C@H](C#N)C[C@H]4C[C@H]43)nn(C3CCOCC3)c21 (stereo partly drawn) [Compound I-656]
IC50 [1]: ≤ 100 nM | IC50 [2, 3]: ≤ 200 nM | IC50 [2, 5]: ≤ 200 nM

CCN1C(=O)[C@H](NC(=O)c2cccc(C(F)(F)F)c2)[C@H](c2ccc(F)cc2)c2c(C(=O)N3CCC[C@H]3C#N)nn(C3CC3)c21 [Compound I-558]
IC50 ([1]; TF-1, 3 h): > 1000 nM | IC50 [2, 3]: 1000 to 3000 nM | IC50 [2, 4]: 1000 to 3000 nM

CCN1C(=O)[C@H](NC(=O)c2cccc(C(F)(F)F)c2)[C@H](C2CC2)c2c(C(=O)N(CC#N)C3CC3)nn(-c3ccccc3)c21 [Compound I-557]
IC50 ([1]; TF-1, 3 h): > 1000 nM | IC50 [2, 3]: 1000 to 3000 nM | IC50 [2, 4]: 1000 to 3000 nM

CCN1C(=O)C(NC(=O)c2cccc(C(F)(F)F)c2)[C@@H](C2CC2)c2c(C(=O)N3CC(NC)CC3C#N)nn(C3CCOCC3)c21 (stereo in doubt) [Compound I-420, N-[(4S,5S)-3-[(2S,4R*)-2-cyano-4-(methylamino)pyrrolidine-1-carbonyl]-4-cyclopropyl-7-ethyl-1-(oxan-4-yl)-6-oxo-4H,5H-pyrazolo[3,4-b]pyridin-5-yl]-3-(trifluoromethyl)benzamide]
IC50 ([1]; TF-1, 3 h): > 1000 nM | IC50 [2, 3]: 1000 to 3000 nM | IC50 [2, 4]: 1000 to 3000 nM

CCN1C(=O)[C@@H](NC(=O)c2cccc(C(F)(F)F)c2)[C@@H](c2ccc(F)nc2)c2c(C(=O)N3CCC[C@H]3C#N)nn(C3CC3)c21 (mixture of isomers) [Compound I-585]
IC50 ([1]; TF-1, 3 h): 100 to 1000 nM | IC50 [2, 3]: ≤ 200 nM | IC50 [2, 4]: 1000 to 3000 nM

CCN1C(=O)[C@@H](NC(=O)c2cccc(C(F)(F)F)c2)[C@@H](c2ccc(F)cc2)c2c([C@@H](C)N(C#N)C(=O)OCCN3CCN(C)CC3)nn(-c3ccccc3)c21 [Compound I-536]
IC50 ([1]; TF-1, 3 h): 100 to 1000 nM | IC50 [2, 3]: ≤ 200 nM | IC50 [2, 5]: ≤ 200 nM

CCN1C(=O)[C@@H](NC(=O)c2cccc(C(F)(F)F)c2)[C@@H](c2ccc(F)cc2)c2c(CN(C)C/C=C/C(=O)N3CCCC3)nn(-c3ccccc3)c21 [Compound I-606]
IC50 ([1]; TF-1, 3 h): > 1000 nM | IC50 [2, 3]: 200 to 1000 nM | IC50 [2, 4]: 200 to 1000 nM

CCN1C(=O)[C@@H](NC(=O)c2cccc(C(F)(F)F)c2)[C@@H](c2ccc(F)cc2)c2c(C(=O)N3[C@H](C#N)C[C@@H]4C[C@@H]43)nn(-c3ccccc3)c21 [Compound I-450]
IC50 ([1]; TF-1, 3 h): 100 to 1000 nM | IC50 [2, 3]: 1000 to 3000 nM | IC50 [2, 4]: 1000 to 3000 nM

CCN1C(=O)[C@@H](NC(=O)c2cccc(C(F)(F)F)c2)[C@@H](C2CC2)c2c(C(=O)N3CCNC[C@@H]3C#N)nn(-c3ccccc3)c21 (single isomer, unassigned) [Compound I-518]
IC50 ([1]; TF-1, 3 h): ≤ 100 nM | IC50 [2, 3]: ≤ 200 nM | IC50 [2, 4]: 200 to 1000 nM

CCN1C(=O)[C@@H](NC(=O)c2cccc(C(F)(F)F)c2)[C@@H](c2ccc(F)cc2)c2c(C(=O)N3[C@H](C)CC[C@H]3C#N)nn(C3CCOCC3)c21 [Compound I-416]
IC50 ([1]; TF-1, 3 h): 100 to 1000 nM | IC50 [2, 3]: 200 to 1000 nM | IC50 [2, 4]: 1000 to 3000 nM

CCN1C(=O)[C@H](NC(=O)c2cccc(C(F)(F)F)c2)[C@H](c2ccc(F)cc2)c2c(C(=O)N3CC[C@@H]3C#N)nn(-c3ccccc3)c21 [Compound I-457]
IC50 ([1]; TF-1, 3 h): > 1000 nM | IC50 [2, 3]: 1000 to 3000 nM | IC50 [2, 4]: 1000 to 3000 nM

CCCn1nc(C(=O)N2CCC[C@H]2C#N)c2c1N(CC)C(=O)[C@H](NC(=O)c1cccc(C(F)(F)F)c1)[C@@H]2C1CC1 [Compound I-571]
IC50 ([1]; TF-1, 3 h): > 1000 nM | IC50 [2, 3]: 1000 to 3000 nM | IC50 [2, 4]: 1000 to 3000 nM

CCN1C(=O)[C@@H](NC(=O)c2cccc(C(F)(F)F)c2)[C@@H](c2ccc(F)cc2)c2c(C(=O)N3CS(=O)(=O)C[C@H]3C#N)nn(-c3ccccc3)c21 [Compound I-465]
IC50 ([1]; TF-1, 3 h): ≤ 100 nM | IC50 [2, 3]: ≤ 200 nM | IC50 [2, 5]: ≤ 200 nM

CCN1C(=O)[C@@H](NC(=O)c2ccc3ncoc3c2)[C@@H](C2CC2)c2c(C(=O)N3[C@H](C#N)C[C@H]4C[C@H]43)nn(C3CCOCC3)c21 [Compound I-564]
IC50 ([1]; TF-1, 3 h): > 1000 nM | IC50 [2, 3]: 1000 to 3000 nM | IC50 [2, 4]: 1000 to 3000 nM

CCN1C(=O)[C@@H](NC(=O)c2cccc(C(F)(F)F)c2)[C@@H](c2ccc(F)cc2)c2c(C(=O)N3CC[C@H](NC)[C@H]3C#N)nn(C3CCOCC3)c21 (mixture of isomers) [Compound I-693, N-((4S,5S)-3-(trans-(2S,3S)-2-cyano-3-(methylamino)pyrrolidine-1-carbonyl)-7-ethyl-4-(4-fluorophenyl)-6-oxo-1-(tetrahydro-2H-pyran-4-yl)-4,5,6,7-tetrahydro-1H-pyrazolo[3,4-b]pyridin-5-yl)-3-(trifluoromethyl)benzamide]
IC50 ([1]; TF-1, 3 h): ≤ 100 nM | IC50 [2, 3]: ≤ 200 nM | IC50 [2, 5]: ≤ 200 nM

CCN1C(=O)[C@H](NC(=O)c2cccc(C(F)(F)F)c2)[C@H](c2ccc(F)cc2)c2c(C(=O)N3CCC[C@H]3C#N)nn(-c3cccc(OCCN4CCC5(CC4)COC5)c3)c21 [Compound I-616]
IC50 ([1]; TF-1, 3 h): > 1000 nM | IC50 [2, 3]: 1000 to 3000 nM | IC50 [2, 4]: 1000 to 3000 nM

CCN1C(=O)[C@H](NC(=O)c2cccc(C(F)(F)F)c2)[C@H](c2ccc(F)cc2)c2c([C@@H](C)NC#N)nn(C3CCOCC3)c21 [Compound I-597]
IC50 ([1]; TF-1, 3 h): > 1000 nM | IC50 [2, 3]: 1000 to 3000 nM | IC50 [2, 4]: 1000 to 3000 nM

CCN1C(=O)[C@@H](NC(=O)c2nccc(C(F)(F)F)n2)[C@H](c2ccc(F)cc2)c2c(CNC(=O)CC#N)nn(-c3ccccc3)c21 [Compound I-452, N-((4R,5S)-3-((2-cyanoacetamido)methyl)-7-ethyl-4-(4-fluorophenyl)-6-oxo-1-phenyl-4,5,6,7-tetrahydro-1H-pyrazolo[3,4-b]pyridin-5-yl)-4-(trifluoromethyl)pyrimidine-2-carboxamide]
IC50 ([1]; TF-1, 3 h): > 1000 nM | IC50 [2, 3]: 1000 to 3000 nM | IC50 [2, 4]: 1000 to 3000 nM

CCN1C(=O)[C@@H](NC(=O)c2cccc3ncoc23)[C@@H](C2CC2)c2c(C(=O)N3[C@H](C#N)C[C@H]4C[C@H]43)nn(C3CCOCC3)c21 [Compound I-565]
IC50 ([1]; TF-1, 3 h): ≤ 100 nM | IC50 [2, 3]: ≤ 200 nM | IC50 [2, 4]: 200 to 1000 nM

CCN1C(=O)[C@@H](NC(=O)N2CCC[C@@H](C(F)(F)F)C2)C(c2ccc(F)cc2)c2c(C(=O)N3CCC[C@H]3C#N)nn(-c3ccccc3)c21 (single isomer, unassigned) [Compound I-464]
IC50 ([1]; TF-1, 3 h): > 1000 nM | IC50 [2, 3]: 1000 to 3000 nM | IC50 [2, 4]: 1000 to 3000 nM

CCN1C(=O)[C@H](NC(=O)c2cccc(C(F)(F)F)c2)[C@H](c2ccc(F)cc2)c2c(C(=O)N(CC#N)CCO)nn(-c3ccccc3)c21 (stereo in doubt) [Compound I-639]
IC50 ([1]; TF-1, 3 h): > 1000 nM | IC50 [2, 3]: 1000 to 3000 nM | IC50 [2, 4]: 1000 to 3000 nM

CCN1C(=O)[C@@H](NC(=O)c2cnc(C)cc2Cl)[C@@H](C2CC2)c2c(C(=O)N3[C@H](C#N)C[C@H]4C[C@H]43)nn(C3CCOCC3)c21 [Compound I-506]
IC50 ([1]; TF-1, 3 h): > 1000 nM | IC50 [2, 3]: 1000 to 3000 nM | IC50 [2, 4]: 1000 to 3000 nM
